# In patent US20210008149A1, “WNT5A PEPTIDES IN REDUCTION OF CANCER STEM CELLS” (WNTRESEARCH AB, priority 2017, published 2021):
# Where two headings read alike, the source gives them in different places.
# Tests used:
# [1] = test system: human HT29 colon cancer cells; assay: CellTiter-Blue fluorescence cell viability assay; details: for IC50: read-out: IC50 value, cell viability, from dose-response curves
# Protocol: (§9) Colon cancer HT29 cells were treated with either FOLFOX alone (green triangles), 5-FU alone (orange triangles), oxaliplatin alone (black squares), Foxy-5 alone (red squares) or FOLFOX+Foxy-5 (blue circles). The cytotoxic effects of these different treatments were evaluated by CellTiter-Blue™ fluorescence cell viability assay. […] The data are normalized and shown as means±SEM.
# HT29 colon cancer cells = assay: HT29 colon cancer xenograft in nude mice, tumours analysed by IHC and mRNA; format: in vivo; details: HT29-derived tumours
# Source text: (§1) Representative photos from saline- and Foxy-5-treated animals are presented. From each such slide, 4 boxes were put on top of the stained tissue and for each of them the ALDH staining was scored as a percentage of stained cells multiplied by the staining intensity. The following score was used for percentage stained cells; 0 for positive stained cells <5%, 1 for positive cells 5-25%, 2 for positive cells 26-50%, 3 for positive cells 51-75%, 4 for positive cells >75%.
# (§2) For staining intensities, the stained areas were scored as; 1 for weak staining, 2 for medium staining and 3 for strong staining. For each box a final score was obtained by multiplying the score for percentage of positively stained cells with the score for staining intensity. Finally, a mean value was obtained from the 4 boxes for each tumour. The same scoring protocol was then used for all IHC analyses presented in the present study.
# as §1, with “Representative images” for “Representative photos”, “from vehicle (saline)” for “from saline-”, “slide, 6” for “slide, 4”, “were randomly” for “were”
# as §2, with “6” for “4”, “tumour sample.” for “tumour.”
# (§3) Tumours from two different human colon cancer cell types HT29 and Caco-2 cells were examined by immunohistochemistry (IHC) and mRNA (see FIG. 1).
# (§4) On day 0: Subcutaneous injections of HT29 or Caco-2 colon cancer cells in nude mice were done.
# (§5) On day 7 after tumours have been established in the mice, intraperitoneal (I.P) injections of vehicle (saline) alone (gr 1) or Foxy-5 (2 μg/g; gr 2) were done.
# (§6) On days 9-23 tumour growth and animal weight was monitored—then +8 I.P. injections every 2nd day of either vehicle alone (gr 1) or Foxy-5 (2 μg/g; gr 2).
# (§7) On day 24 the two types of tumours (Caco-2 and HT29 derived) (divided in two parts of which one was fixed and the other frozen at −80° C.) were analyzed by IHC for their protein expression of COX-2, 15PGDH, β-catenin, Ascl2, ALDH and Dckl1 and for their mRNA content of ALDH and Dckl1 (ALDH is a general stem cell marker and Dck1 is a specific marker for colon CSCs).
# [2] = test system: Caco-2 colon cancer cells; assay: Caco-2 colon cancer xenograft in nude mice, tumours analysed by IHC and mRNA; format: in vivo; details: Caco-2-derived tumours
# Source text: as §1, §2
# as §1, with “Representative images” for “Representative photos”, “from vehicle (saline)” for “from saline-”, “slide, 6” for “slide, 4”, “were randomly” for “were”
# as §2, with “6” for “4”, “tumour sample.” for “tumour.”
# as §3, §4, §5, §6, §7
# [3] = test system: colon cancer xenograph tissue; assay: Colon cancer xenograft tissue (cell line not stated), IHC of COX-2 and 15-PGDH; format: in vivo, nude mice; details: Foxy-5 2 μg/g I.P., vs vehicle
# Source text: The IHC stainings were scored exactly as described in detail for the IHC staining in FIG. 1.
# (§8) Representative images from vehicle- and Foxy-5-treated animals are presented. From each such slide 6 boxes were put on top of the stained tissue and for each of them the Cox-2 staining was scored as a percentage of stained cells multiplied by the staining intensity as described in detail for FIG. 2.
# as §8, with “15-PGDH” for “Cox-2”
# On day 0: Subcutaneous injections of HT29 or Caco-2 colon cancer cells in nude mice were done. […]
# as §6, §7
# colon cancer cells [4] = assay: In vitro treatment of colon cancer cells (Mehdawi et al., 2016); format: cell-based; details: in vitro conditions, inventors' own observation
# [5] = test system: human HT29 colon cancer cells
# Protocol: as §9
# colon cancer cells [6] = details: in vitro; cited from earlier work
# [7] = Foxy-5 2 μg/g I.P. every 2nd day, day 7-23, IHC and mRNA, day 24, vs vehicle
# [8] = Foxy-5 2 μg/g I.P., vs vehicle-treated mice
molecule,measurement,setting,value
"O=c1[nH]cc(F)c(=O)[nH]1 [5-FU, 5-fluorouracil]",IC50,[1],6.8 µM
Nc1nc2c(c(=O)[nH]1)N(C=O)C(CNc1ccc(C(=O)N[C@@H](CCC(=O)O)C(=O)O)cc1)CN2 (stereo partly drawn) [folinic acid],cytotoxic effect on cell viability,[1]; monotherapy,no cytotoxic effect
O=C1[O][Pt]2([NH][C@@H]3CCCC[C@H]3[NH]2)[O]C1=O [oxaliplatin],IC50,[1],3.4 µM
MDGCEL [Foxy-5],active β-catenin nuclei expression,"HT29 colon cancer cells; IHC, Foxy-5 2 μg/g I.P.",Decreased
same,β-catenin downstream target Ascl2 protein expression,"HT29 colon cancer cells; IHC, Foxy-5 2 μg/g I.P.",reductions
same,expression of the two stem cell biomarkers (ALDH and Dck1),HT29 colon cancer cells; [7],significantly reduce
same,tumour volume,HT29 colon cancer cells; [8],reductions
same,active β-catenin nuclei expression,"[2]; IHC, Foxy-5 2 μg/g I.P.",Decreased
same,β-catenin downstream target Ascl2 protein expression,"[2]; IHC, Foxy-5 2 μg/g I.P.",reductions
same,expression of the two stem cell biomarkers (ALDH and Dck1),[2]; [7],significantly reduce
same,tumour volume,[2]; [8],reductions
same,PGE2 degrading enzyme 15-PGDH expression,[3],increase
same,expression of the PGE2 generating enzyme COX-2,[3],decrease
same,number of CSCs,colon cancer cells [4],not been able to detect any reduction
same,cytotoxic effect on cell viability,[5],no cytotoxic effect
same,expression of the PGE2 and lipoxin degrading enzyme 15-PGDH,colon cancer cells [6],up-regulate
same,expression of the PGE2 producing enzyme COX-2,colon cancer cells [6],decrease
same,β-catenin signalling,colon cancer cells [6],reduction
same,effect on the inhibitory effect of FOLFOX on cell viability,[1]; combined with FOLFOX,do not enhance or reduce
same,"IC50 value, cell viability",[1]; from dose-response curves,no IC50 value could be determined
"WNT5A protein: full length WNT5A protein according to SEQ ID NO: 1, a non-canonical Wnt ligand (protein, listed as Homo sapiens) MKKSIGILSPGVALGMAGSAMSSKFFLVALAIFFSFAQVVIEANSWWSLGMNNPVQMSEVYIIGAQPLCSQLAGLSQGQKKLCHLYQDHMQYIGEGAKTGIKECQYQFRHRRWNCSTVDNTSVFGRVMQIGSRETAFTYAVSAAGVVNAMSRACREGELSTCGCSRAARPKDLPRDWLWGGCGDNIDYGYRFAKEFVDARERERIHAKGSYESARILMNLHNNEAGRRTVYNLADVACKCHGVSGSCSLKTCWLQLADFRKVGDALKEKYDSAAAMRLNSRGKLVQVNSRFNSPTTQDLVYIDPSPDYCVRNESTGSLGTQGRLCNKTSEGMDGCELMCCGRGYDQFKTVQTERCHCKFHWCCYVKCKKCTEIVDQFVCK",number of CSCs,colon cancer cells [4],not been able to detect any reduction
same,expression of the PGE2 and lipoxin degrading enzyme 15-PGDH,colon cancer cells [6],up-regulate
same,expression of the PGE2 producing enzyme COX-2,colon cancer cells [6],decrease
same,β-catenin signalling,colon cancer cells [6],reduction
